From patent US20230312605A1, “PYRROLO[2,1-F][1,2,4]TRIAZINES AND PREPARATION AND USES THEREOF” (BioSplice Therapeutics, Inc., priority 2021, published 2023)

Biological target: recombinant DYRK1A kinase (Homo sapiens (Human), UniProt Q13627)
Assay: DYRK1A kinase assay (Ser/Thr 18 peptide Z-lyte FRET assay)
Assay type: biochemical
Conditions: recombinant DYRK1A 0.25 µg/mL, ATP 15 µM, Ser/Thr peptide 18 4 µM, one hour at room temperature; table head prints EC50, method says IC50
Procedure, shortened: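 Z-lyte FRET format: 1 h room-temperature reaction of 15 µM ATP, 4 µM Ser/Thr 18 peptide and 0.25 µg/mL recombinant human DYRK1A, in duplicate over 11 compound concentrations up to 10 µM. IC50 was derived by non-linear regression of percent phosphorylation calculated from coumarin/fluorescein emission ratios.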

| Compound | EC50 [nM] |
| --- | --- |
| Cc1nc2ccc(-c3ccn4nc(N[C@@H]5CCN(CC(C)C)C[C@@H]5F)ncc34)nc2n1CC(F)F [Compound 1908, 5-(3-(2,2-Difluoroethyl)-2-methyl-3H-imidazo[4,5-b]pyridin-5-yl)-N-((3S,4R)-3-fluoro-1-isobutylpiperidin-4-yl)pyrrolo[2,1-f] [1,2,4]triazin-2-amine] | 7 |
| Cc1nc2ccc(-c3ccn4nc(N[C@H]5CCN(CC(C)C)C[C@H]5F)ncc34)nc2n1CC(F)F [Compound 1909, 5-(3-(2,2-difluoroethyl)-2-methyl-3H-imidazo[4,5-b]pyridin-5-yl)-N-((3R,4S)-3-fluoro-1-isobutylpiperidin-4-yl)pyrrolo[2,1-f][1,2,4]triazin-2-amine] | 5 |
| Cc1nc2ccc(-c3ccn4nc(N[C@H]5CCN(C)C(=O)C5)ncc34)nc2n1CC(F)F [Compound 1911, (S)-4-((5-(3-(2,2-Difluoroethyl)-2-methyl-3H-imidazo [4,5-b]pyridin-5-yl)pyrrolo[2,1-f] [1,2,4]triazin-2-yl)amino)-1-methylpiperidin-2-one] | 4 |
| Cc1nc2ccc(-c3ccn4nc(N[C@@H]5CCOC[C@H]5F)ncc34)nc2n1CC(F)F [Compound 1912, 5-(3-(2,2-Difluoroethyl)-2-methyl-3H-imidazo[4,5-b]pyridin-5-yl)-N-((3S,4R)-3-fluorotetrahydro-2H-pyran-4-yl)pyrrolo[2,1-f] [1,2,4]triazin-2-amine] | 7 |
| Cc1nc2ccc(-c3ccn4nc(N[C@@H]5[C@@H]6COC[C@@H]65)ncc34)nc2n1CC(F)F [Compound 1914, N-((lR,5S,6s)-3-Oxabicyclo[3.1.0]hexan-6-yl)-5-(3-(2,2-difluoroethyl)-2-methyl-3H-imidazo[4,5-b]pyridin-5-yl)pyrrolo[2,1-f][1,2,4]triazin-2-amine] | 5 |
| Cc1nc2ncc(-c3ccn4nc(NC5CCC(F)(F)CC5)ncc34)cc2n1Cc1nnc([C@@H](C)F)o1 [Compound 1915, (R)-N-(4,4-Difluorocyclohexyl)-5-(1-((5-(1-fluoroethyl)-1,3,4-oxadiazol-2-yl)methyl)-2-methyl-1H-imidazo[4,5-b]pyridin-6-yl)pyrrolo[2,1-f][1,2,4]triazin-2-amine] | 9 |
| Cc1nc2ccc(-c3ccn4nc(NC5CCNCC5)ncc34)nc2n1CC(F)F [Compound 1916, 5-(3-(2,2-difluoroethyl)-2-methyl-3H-imidazo[4,5-b]pyridin-5-yl)-N-(piperidin-4-yl)pyrrolo[2,1-f][1,2,4]triazin-2-amine] | 5 |
| Cc1nc2ccc(-c3ccn4nc(NC5CCN(C(=O)[C@@H]6CC6(F)F)CC5)ncc34)nc2n1CC(F)F [Compound 1917, (S)-(2,2-Difluorocyclopropyl)(4-((5-(3-(2,2-difluoroethyl)-2-methyl-3H-imidazo[4,5-b]pyridin-5-yl)pyrrolo[2,1-f] [1,2,4]triazin-2-yl)amino)piperidin-1-yl)methanone] | 9 |
| Cc1nc2ccc(-c3ccn4nc(NC5CCN(C(=O)[C@H]6CC6(F)F)CC5)ncc34)nc2n1CC(F)F [Compound 1918, (R)-(2,2-Difluorocyclopropyl)(4-((5-(3-(2,2-difluoroethyl)-2-methyl-3H-imidazo[4,5-b]pyridin-5-yl)pyrrolo[2,1-f] [1,2,4]triazin-2-yl)amino)piperidin-1-yl)methanone] | 7 |
| CC(=O)N[C@]1(C)C[C@@H](Nc2ncc3c(-c4ccc5nc(C)n(CC(F)F)c5c4)ccn3n2)C1 [Compound 1920, N-((1r,3r)-3-((5-(1-(2,2-Difluoroethyl)-2-methyl-1H-benzo[d]imidazol-6-yl)pyrrolo[2,1-f] [1,2,4]triazin-2-yl)amino)-1-methylcyclobutyl)acetamide] | 1 |
| CC(=O)N1C[C@@H](F)[C@@H](Nc2ncc3c(-c4ccc5nc(C)n(CC(F)F)c5n4)ccn3n2)C1 [Compound 1940, 1-((3S,4R)-3-((5-(3-(2,2-Difluoroethyl)-2-methyl-3H-imidazo[4,5-b]pyridin-5-yl)pyrrolo[2,1-f] [1,2,4]triazin-2-yl)amino)-4-fluoropyrrolidin-1-yl)ethan-1-one] | 7 |
| CC(=O)N1C[C@H](F)[C@H](Nc2ncc3c(-c4ccc5nc(C)n(CC(F)F)c5n4)ccn3n2)C1 [Compound 1941, 1-((3R,4S)-3-((5-(3-(2,2-Difluoroethyl)-2-methyl-3H-imidazo[4,5-b]pyridin-5-yl)pyrrolo[2,1-f] [1,2,4]triazin-2-yl)amino)-4-fluoropyrrolidin-1-yl)ethan-1-one] | 4 |
| Cc1nc2ccc(-c3ccn4nc(N[C@H]5CN(C6COC6)C[C@H]5F)ncc34)nc2n1CC(F)F [Compound 1944, 5-(3-(2,2-difluoroethyl)-2-methyl-3H-imidazo[4,5-b]pyridin-5-yl)-N-((3S,4R)-4-fluoro-1-(oxetan-3-yl)pyrrolidin-3-yl)pyrrolo[2,1-f][1,2,4]triazin-2-amine] | 13 |
| Cc1nc2ccc(-c3ccn4nc(N[C@@H]5CN(C6COC6)C[C@@H]5F)ncc34)nc2n1CC(F)F [Compound 1945, 5-(3-(2,2-Difluoroethyl)-2-methyl-3H-imidazo[4,5-b]pyridin-5-yl)-N-((3R,4S)-4-fluoro-1-(oxetan-3-yl)pyrrolidin-3-yl)pyrrolo [2,1-f][1,2,4]triazin-2-amine] | 1 |
| Cc1nc2ccc(-c3ccn4nc(N[C@H]5CC[C@@H](C(=O)N6CC(F)(F)C6)CC5)ncc34)nc2n1CC(F)F [Compound 1950, (3,3-Difluoroazetidin-1-yl)(cis-4-((5-(3-(2,2-difluoroethyl)-2-methyl-3H-imidazo[4,5-b]pyridin-5-yl)pyrrolo[2,1-f][1,2,4]triazin-2-yl)amino)cyclohexyl)methanone] | 3 |
| CC(=O)N1CC[C@@H](Nc2ncc3c(-c4ccc5nc(C)n(CC(F)F)c5n4)ccn3n2)[C@@H](F)C1 [Compound 1951, 1-((3S,4R)-4-((5-(3-(2,2-Difluoroethyl)-2-methyl-3H-imidazo[4,5-b]pyridin-5-yl)pyrrolo[2,1-f] [1,2,4]triazin-2-yl)amino)-3-fluoropiperidin-1-yl)ethan-1-one] | 5 |
| CC(=O)N1CC[C@H](Nc2ncc3c(-c4ccc5nc(C)n(CC(F)F)c5n4)ccn3n2)[C@H](F)C1 [Compound 1952, 1-((3R,4S)-4-((5-(3-(2,2-Difluoroethyl)-2-methyl-3H-imidazo[4,5-b]pyridin-5-yl)pyrrolo[2,1-f] [1,2,4]triazin-2-yl)amino)-3-fluoropiperidin-1-yl)ethan-1-one] | 4 |
| Cc1nc2ccc(-c3ccn4nc(NC5CCN(C(=O)C6CCC(F)(F)CC6)CC5)ncc34)nc2n1CC(F)F [Compound 1953, (4,4-difluorocyclohexyl)(4-((5-(3-(2,2-difluoroethyl)-2-methyl-3H-imidazo[4,5-b]pyridin-5-yl)pyrrolo[2,1-f][1,2,4]triazin-2-yl)amino)piperidin-1-yl)methanone] | 7 |
| Cc1nc2ccc(-c3ccn4nc(N[C@@H]5CCN(C6COC6)C[C@@H]5F)ncc34)nc2n1CC(F)F [Compound 1954, 5-(3-(2,2-Difluoroethyl)-2-methyl-3H-imidazo[4,5-b]pyridin-5-yl)-N-((3 S,4R)-3-fluoro-1-(oxetan-3-yl)piperidin-4-yl)pyrrolo[2,1-f] [1,2,4]triazin-2-amine] | 6 |
| Cc1nc2ccc(-c3ccn4nc(N[C@H]5CCN(C6COC6)C[C@H]5F)ncc34)nc2n1CC(F)F [Compound 1955, 5-(3-(2,2-Difluoroethyl)-2-methyl-3H-imidazo[4,5-b]pyridin-5-yl)-N-((3R,4S)-3-fluoro-1-(oxetan-3-yl)piperidin-4-yl)pyrrolo[2,1-f][1,2,4]triazin-2-amine] | 4 |
| Cc1nc2ccc(-c3ccn4nc(NC5CCC6(CC5)COC6)ncc34)nc2n1CC(F)F [Compound 1961, 5-(3-(2,2-Difluoroethyl)-2-methyl-3H-imidazo[4,5-b]pyridin-5-yl)-N-(2-oxaspiro[3.5]nonan-7-yl)pyrrolo[2,1-f][1,2,4]triazin-2-amine] | 3 |
| Cc1nc2ncc(-c3ccn4nc(N[C@H]5CC[C@@H](OC(F)(F)F)CC5)ncc34)nc2n1CC(F)F [Compound 1970, 5-(1-(2,2-Difluoroethyl)-2-methyl-1H-imidazo[4,5-b]pyrazin-6-yl)-N-(cis-4-(trifluoromethoxy)cyclohexyl)pyrrolo[2,1-f][1,2,4]triazin-2-amine] | 7 |
| Cc1nc2nc(-c3ccn4nc(N[C@H]5CC[C@@H](OC(F)(F)F)CC5)ncc34)cnc2n1CC(F)F [Compound 1971, 5-(1-(2,2-Difluoroethyl)-2-methyl-1H-imidazo[4,5-b]pyrazin-5-yl)-N-(cis-4-(trifluoromethoxy)cyclohexyl)pyrrolo[2,1-f][1,2,4]triazin-2-amine] | 379 |
| Cc1nc2ncc(-c3ccn4nc(N[C@H]5CC[C@@](C)(O)CC5)ncc34)nc2n1CC(F)F [Compound 1974, cis-4-((5-(1-(2,2-difluoroethyl)-2-methyl-1H-imidazo[4,5-b]pyrazin-6-yl)pyrrolo[2,1-f][1,2,4]triazin-2-yl)amino)-1-methylcyclohexan-1-ol] | 2 |
| CC(=O)N[C@]1(C)C[C@@H](Nc2ncc3c(-c4ccc5ncccc5c4)ccn3n2)C1 [Compound 1980] | 1 |
| CC(=O)N[C@]1(C)C[C@@H](Nc2ncc3c(-c4ccc5nccnc5c4)ccn3n2)C1 [Compound 1981, N-((1r,3r)-1-methyl-3-((5-(quinoxalin-6-yl)pyrrolo[2,1-f][1,2,4]triazin-2-yl)amino)cyclobutyl)acetamide] | 2 |
| CC(=O)N[C@]1(C)C[C@@H](Nc2ncc3c(-c4ccn5nccc5c4)ccn3n2)C1 [Compound 1983, N-(trans-1-Methyl-3-((5-(pyrazolo[1,5-a]pyridin-5-yl)pyrrolo[2,1-f][1,2,4]triazin-2-yl)amino)cyclobutyl)acetamide] | 1 |
